Laboratory results: US11117907B2, “Curcuminoid-inspired synthetic compounds as anti-tumor agents” (University of North Florida Board of Trustees, priority 2017, dated 2021)
Where two headings read alike, the source gives them in different places.

How the values were obtained:
RPMI8226 [1] = test: Cell viability assay to determine EC50 (CellTiter-Glo 2.0), RPMI8226; type: cell-based; settings: Homo sapiens, RPMI-8226; Table 7, run number 2; 72 h
Procedure: (§1) RPMI-8266 (Multiple myeloma cell line, MM) and PBCMs cells were seeded into 384-well culture plates at 2×10^3 cell/well in quadruplicate, and incubated at 5% CO2, 37° C. The culture media was replaced with compounds (ranges from 0-10,000 nM) and incubated for 72 h. Bortezomib was spiked in control. […] CellTiter-Glo® 2.0 reagent was added at equal volume to the cell culture medium present in each well and the plate was left to incubate at room temperature for 10 minutes to stabilize the luminescent signal.
(§2) Cell lines and PBCMs (peripheral blood mononuclear cells from healthy donors as non-cancer CONTROL) were seeded in quadruplicate (technical replicates). CellTiter-Glo® 2.0 reagent equal to the volume of cell culture medium present in each well was added and the plate was left to incubate at room temperature for 10 min to stabilize the luminescent signal. Luminescent signal/intensity from the 384-well plate was read on a plate reader. Cells/cell lines used: BCWM.1 (Waldenstrom macroglobulinemia cell line, WM); RPMI-8266 (Multiple myeloma cell line, MM); RS4; 11 (Acute lymphoblastic leukemia, ALL)* reported to be dependent on Bcl-2 protein.

PBMC [2] = test: Cell viability assay (CellTiter-Glo 2.0), PBMC from healthy donors; type: cell-based; settings: Homo sapiens, Table 7, run number 2, 72 h
Procedure: Peripheral blood mononuclear cells (PBMCs) were collected from healthy, i.e. non-cancerous, donors (CONTROL).
as §1
as §2, with “Cells/cell lines used: BCWM.1 (Waldenstrom macroglobulinemia cell line, WM); RPMI-8266 (Multiple myeloma cell line, MM); RS4; 11 (Acute lymphoblastic leukemia, ALL)* reported to be dependent on Bcl-2 protein.” left out
Cell lines and PBCMs (peripheral blood mononuclear cells from healthy donors as non-cancer CONTROL) were seeded in quadruplicate (technical replicates). […] Luminescent signal/intensity from the 384-well plate was read on a plate reader. […]

RPMI8226 [3] = settings: control; typically; read-out: EC50 in RPMI8266, typical value; cited from earlier work
PBMC [4] = settings: comparison value; read-out: IC50 of PBMCs; cited from earlier work
[5] = system: MM cell lines (MM1.S, KMS11, RPMI-8226); settings: cited from earlier work

CC(C)C[C@H](NC(=O)[C@H](Cc1ccccc1)NC(=O)c1cnccn1)B(O)O [Bortezomib]
EC50 (RPMI8226 [1]): 10.6 nM | EC50 (PBMC [2]): 60.5 nM | EC50 (RPMI8226 [3]): 10 to 16 nM | IC50 (PBMC [4]): 4 to 6 nM | in vitro tumor-specificity profile ([5]; MM cells versus PBMCs): 2-3 fold | IC50 ([5]; comparison value, read-out: IC50 in MM cells): ~2 nM
